{"source": "patent US20070249572A1", "about": "“Systems and methods for the delivery of corticosteroids” (Verus Pharmaceuticals, Inc., priority 2005, published 2007)", "origin": "cited, not measured here"}
{"smiles": "CCCC1O[C@@H]2C[C@H]3[C@@H]4CCC5=CC(=O)C=C[C@]5(C)[C@H]4[C@@H](O)C[C@]3(C)[C@]2(C(=O)CO)O1", "note": "(stereo partly drawn) [budesonide, (R,S)-llβ,16α,17,21-tetrahydroxypregna-1,4-diene-3,20-dione cyclic 16,17-acetal with butyraldehyde]", "values": [{"measurement": "solubility in alcohols", "setting": "alcohols", "value": "readily soluble in alcohols"}, {"measurement": "solubility in water", "setting": "water", "value": "virtually insoluble in water"}]}
